Laboratory results taken from patent US20140308298A1, “Diagnostic and Treatment of an Androgen-Independent Prostate Cancer” (UNIVERSITE D'AIX MARSEILLE, priority 2011, published 2014).

What was measured:
Du145 cells [1] = experiment: Western blot of phosphorylated cRaf, MEK1/2, ERK and Akt in Du145 cells; type: cell-based, human
Experimental: (§1) FIG. 2: Adrenomedullin stimulates Du145 cell proliferation and invasion in vitro. A, AM induced cAMP formation in cultured Du145 cells. Cells (3×10^4 cells/ml) were treated with AM (10^−9 M-10^−7 M) for different times. Each value is the mean±SEM of three independent experiments performed in quadruplate (*, p<0.05; **, p<0.01; ***, p<0.001). B, oppose effects of AM and αAM on the growth of Du145 cells in vitro. For proliferation assays, Du145 cells were seeded at the density of 1×10^4 per well in 6 multiwell plates in presence of RPMI 1640 medium supplemented with 5% FBS. AM at 10^−7 M and αAM (70 μg/ml) were added. As control, rabbit control IgG (70 μg/ml) of irrelevant specificity was used. For each treatment, three wells were prepared, exposed to trypsin and cells were counted in Coulter Counter. Each bar represents the mean±SEM of four independent experiments (**, p<0.01; ***, p<0.001). C, AM stimulates Du145 cells invasion in vitro. Du145 cells (1.5×10^4 cells) were added into Biocoat Matrigel invasion upper chamber and 10^−7 M of AM were added into the lower chamber, and after 6 h, noninvaded cells in the upper membrane were removed and cells invading into the lower membrane were quantified by fluorescence by adding DAPI reagent at least 45 min before taking the reading. RPMI 1640 containing 2% FBS was used as control. bFGF was used as positive control. Data are expressed as the number of migrated cells in 10 high-power fields and are the means of results from three independent experiments. Each bar represents the mean±SEM (**, p<0.01; ***, p<0.001). D, intracellular signalling pathway induced by AM in Du145 cells. Western blot analysis of phosphorylated cRAF (pcRAF), pMEK1/2, pERK (44 and 42 kDa) and ERK in Du145 cells, stimulated with AM (5×10^−7 M) for 2, 5, 10, 20, and 30 min. AM (5×10^−7 M)-induced phosphorylation of ERK was inhibited by mitogen-activated protein kinase kinase inhibitor, U0126 (10 μM, 30 min). EGF was used as positive control known to stimulate phosphorylation of cRAF, MEK, and ERK. To assess the amount of proteins loaded for each sample, immunoblot analysis was performed with anti-α-actin.
Western blotting analysis: Cell extracts were prepared and processed for CLR, RAMP2 and RAMP3 western blot analysis as described (29). Immunoblotting of phospho-c-Raf, phospho-MEK1/2, phospho-ERK1/2, and ERK1/2 was performed using MAPK-phospho-ERK1/2 pathway samples kit (Cell Signaling Technologie, Inc.).

[2] = system: lymphatic endothelial cells; experiment: LEC death after serum deprivation; type: cell-based, human; settings: AM 10^-7 M
Experimental: FIG. 12. AM is a growth factor survival for lymphatic endothelial cells. Time course of LEC death after DMEM serum deprivation in the absence and presence of AM (10^−7M). Exponentially growing cells were changed into serum-free medium, and all floating cells after 12, 24 and 48 h were counted with a coulter counter. Each point and bar represents mean±SEM (n=6); values were normalized to the total number of floating dead cells 48 h after serum deprivation in the absence of AM, which was set at 100%. **, p<0.01.

Du145 cells [3] = experiment: Cell proliferation assay, Du145 cells; type: cell-based, human; settings: AM 10^-7 M
Experimental: as §1, with “C, AM stimulates Du145 cells invasion in vitro.” left out, “RPMI 1640 containing 2% FBS was used as control. bFGF was used as positive control.” left out, “Each bar represents the mean±SEM (**, p<0.01; ***, p<0.001). D, intracellular signalling pathway induced by AM in Du145 cells. Western blot analysis of phosphorylated cRAF (pcRAF), pMEK1/2, pERK (44 and 42 kDa) and ERK in Du145 cells, stimulated with AM (5×10^−7 M) for 2, 5, 10, 20, and 30 min. AM (5×10^−7 M)-induced phosphorylation of ERK was inhibited by mitogen-activated protein kinase kinase inhibitor, U0126 (10 μM, 30 min). EGF was used as positive control known to stimulate phosphorylation of cRAF, MEK, and ERK. To assess the amount of proteins loaded for each sample, immunoblot analysis was performed with anti-α-actin.” left out

PC-3 cells [4] = experiment: Matrigel invasion assay (modified Boyden chamber), PC3 cells; type: cell-based, human; settings: AM 10^-7 M, 6 h
Experimental: (§2) FIG. 9: Effect of AM on PC3 cells in vitro. A, expression of AMR mRNAs in PC3 cells. Total RNA (1 μg) DNA-free from PC3 cell line was reverse transcribed into cDNA and subjected to real-time quantitative reverse transcription (RT)-PCR for the estimation of relative CLR, RAMP2 and RAMP3 mRNAs to 18S rRNA ratio. B, effects of AM and αAM on the growth of PC3 cells in vitro. For proliferation assays, PC3 cells were seeded at the density of 2×10^4 per well in 24 multiwell plates in the presence of RPMI 1640 medium supplemented with 2% FBS. AM at 10^−7M or αAM (70 μg/ml) were added. As control, rabbit control IgG (70 μg/ml) of irrelevant specificity was used. For each treatment, six wells were prepared, exposed to trypsin and cells were counted in Coulter Counter. Each bar represents the mean±SEM of four independent experiments. […] PC3 cells (3×10^4 cells) were added into Biocoat Matrigel invasion upper chamber and 10^−7 M of AM were added into the lower chamber, and after 6 h, non-invaded cells in the upper membrane were removed and cells invading into the lower membrane were quantified by fluorescence by adding DAPI reagent 45 min before taking the reading. Data are expressed as the number of migrated cells in 10 high-power fields and are the means of results from three independent experiments each performed in triplicate. bFGF was used as positive control. […]

human LEC = experiment: Proliferation, migration and invasion of human LECs in vitro; type: cell-based; settings: AM 10^-7 M; proliferation 6 days, migration 20 h, invasion 48 h
Experimental: Neonatal Human Dermal Lymphatic Microvascular Endothelial Cells (HMVEC-dLyNeo) were purchased from Lonza (Lonza, Basel, Switzerland), and expanded in microvascular endothelial cell growth medium-2 (EGM-2MV, Lonza) with growth supplements (EGM-2MV, Lonza). A, total RNA (1 μg) DNA-free from LECs was reverse transcribed into cDNA and subjected to real-time quantitative reverse transcription (RT)-PCR for the estimation of relative AM, CLR, RAMP2 and RAMP3 mRNAs to 18S rRNA ratio. B, oppose effect of AM and αAM on the growth of LECs in vitro. For proliferation assay, LECs were seeded at the density of 3.5×10^4 per well in 6 multiwell plates in the presence of EBM-2 medium supplemented with 0.5% FBS. AM (10^−7 M) and αAM (70 μg/ml) were added for 6 days treatment. After treatment, cells were exposed to trypsin and were prepared for cell number counting in a coulter counter. […] Cells migrating through the filter were counted after 20 h (C) and those migrating in presence of Matrigel were counted after 48 h (D). Data are expressed as the number of migrated cells in 10-high-power fields, and the values represent the mean±SEM of three independent experiments each performed in triplicate (*p<0.05; **p<0.01; ***p<0.001).
Cell migration and invasion assays: The migration and chemoinvasion were assessed using a modified Boyden chamber assay (7). […]

Du145 cells [5] = experiment: Cyclic AMP assay in Du145 cells; type: cell-based, human
Experimental: as §1, with “To assess the amount of proteins loaded for each sample, immunoblot analysis was performed with anti-α-actin.” left out

LNCaP cells [6] = experiment: Cell proliferation assay, LNCaP cells; type: cell-based, human; settings: AM 2×10^-7 M; 5% FBS
Experimental: (§3) FIG. 10: Effect of AM and αAM on LNCaP cells in vitro. A, total RNA (1 μg) DNA-free from LNCaP cell line was reverse transcribed into cDNA and subjected to real-time quantitative reverse transcription (RT)-PCR for the estimation of relative CLR, RAMP2 and RAMP3 mRNAs to 18S rRNA ratio. B, effects of AM and αAM on LNCaP cells growth in vitro. For proliferation assay, LNCaP cells were seeded and treated in the presence of 5% FBS as described for PC3 cells in FIG. 9. C, no effects of AM on LNCaP cells invasion in vitro. For invasion assays, LNCaP cells (5×10^4 cells) were seeded on a Matrigel layer in a boyden chamber assay and analyzed as described for PC3 cells in FIG. 9.
Cell proliferation assay: The effects of AM, αAM and control IgG on cell proliferation was examined at the indicated time points as described (19).

LNCaP cells [7] = experiment: Matrigel invasion assay (modified Boyden chamber), LNCaP cells; type: cell-based, human
Experimental: as §3
Cell migration and invasion assays: The migration and chemoinvasion were assessed using a modified Boyden chamber assay (7). Du145 (15×10^−3), LNCaP (50×10^−3), and PC3 (30×10^−3) cells were added to the upper compartment during 6 h. For LECs, (30×10^−3) cells were added during 48 h for invasion and 20 h for migration.

PC-3 cells [8] = experiment: Cell proliferation assay, PC3 cells; type: cell-based, human; settings: AM 10^-7 M or αAM 70 μg/ml; 2% FBS
Experimental: as §2

Du145 cells [9] = experiment: Matrigel invasion assay (modified Boyden chamber), Du145 cells; type: cell-based, human
Experimental: as §1, with “C, AM stimulates Du145 cells invasion in vitro.” left out, “RPMI 1640 containing 2% FBS was used as control. bFGF was used as positive control.” left out, “Each bar represents the mean±SEM (**, p<0.01; ***, p<0.001). D, intracellular signalling pathway induced by AM in Du145 cells. Western blot analysis of phosphorylated cRAF (pcRAF), pMEK1/2, pERK (44 and 42 kDa) and ERK in Du145 cells, stimulated with AM (5×10^−7 M) for 2, 5, 10, 20, and 30 min. AM (5×10^−7 M)-induced phosphorylation of ERK was inhibited by mitogen-activated protein kinase kinase inhibitor, U0126 (10 μM, 30 min). EGF was used as positive control known to stimulate phosphorylation of cRAF, MEK, and ERK. To assess the amount of proteins loaded for each sample, immunoblot analysis was performed with anti-α-actin.” left out

Compound: N#CC(=C(/N)Sc1ccccc1N)/C(C#N)=C(\N)Sc1ccccc1N [U0126]
- inhibition of p-ERK induced by AM (Du145 cells [1]; U0126 10 μM, 30 min, AM 5×10^-7 M): completely inhibited

Compound: adrenomedullin [AM]
- apoptosis (floating cells) after serum deprivation ([2]; persisted during 48 h, LECs): prevented the apoptosis
- apoptotic cell death of adherent culture ([2]; serum deprived LECs): markedly suppressed
- stimulation of proliferation compared with untreated cells (Du145 cells [3]; 6 days): 51±9.9%
- stimulation of proliferation compared with untreated cells (Du145 cells [3]; 8 days): 96±14.6%
- induction of invasion (PC-3 cells [4]): 144±7.6%
- effect of AM on LECs (human LEC): induces proliferation, migration and invasion of LECs
- time at which cAMP increase reached a maximum (Du145 cells [5]; AM 10^-7 M): 5 min
- increase in cAMP content (Du145 cells [5]; AM 10^-7 M, IBMX 10^-4 M): 2.8±0.14 fold
- stimulation of cAMP formation with graded concentration (Du145 cells [5]; AM 10^-9-10^-7 M, 5 min): dose-dependent stimulation
- growth rates of LNCaP cells versus control cells (LNCaP cells [6]): slight decrease in the growth rates
- effect on LNCaP cells invasion (LNCaP cells [7]): No effect
- levels of p-MEK and p-ERK (Du145 cells [1]; AM 5×10^-7 M, as early as 2 and 5 min, sustained up to 30 min): significantly increased
- cRaf phosphorylation (Du145 cells [1]; AM 5×10^-7 M, as early as 2 min, control levels up to 10 min): increased cRaf phosphorylation
- level of p-Akt (Du145 cells [1]; AM stimulation): not markedly increased
- proliferative response of PC-3 cells (PC-3 cells [8]): no proliferative responses
- increase of invasion compared with control (Du145 cells [9]; AM 10^-7 M in bottom wells, 6 h): 92±22%

Compound: bFGF: Growth factor used as positive control in invasion and migration assays
- effect on invasion relative to AM (Du145 cells [9]; bFGF 10^-6 M, positive control): similar
